Drawing on ChEMBL document CHEMBL3507680, “University of Dundee, Gates Library screen for HepG2 cell viability”, this text covers cytotoxicity for 101 molecules.

The structures appear in SMILES notation.

This data set can be described thus: Human HepG2 cell viability assay in 384 well format. It counts as toxicity, cell-based. Set-up: dose 125 nL, time 70.5 hour; cytotoxicity at 70.5 h: concentration not given beside the values. To be noted: HepG2 cells, read-out: Inhibition.
`O=C(Nc1ccccc1F)N(CCO)CCOCC(F)(F)F`: the cytotoxicity at 70.5 h was -4.12%.

In the case of `O=C(c1ccc(=O)[nH]n1)N1CCCC(O)(CN2CCC(F)(F)CC2)CC1` (stereo unspecified), the cytotoxicity at 70.5 h is -8.65%.

Take `CCn1nc(C)c2c1cnn2CC(=O)N1CCN(C)CC1`: the cytotoxicity at 70.5 h was -1.92%.

On to `CCc1nc(C2CCCN(C(=O)c3cccc(Cl)c3)C2)no1` (stereo unspecified), for which the cytotoxicity at 70.5 h is -1.41%.

In the case of `Cc1nccn1CCCNC(=O)C1CCCCN1Cc1ccncc1` (stereo unspecified), the cytotoxicity at 70.5 h is -2.44%.

Take `CCC(CC)c1cc(CNC(=O)N2CCOCC2CC)on1` (stereo unspecified): the cytotoxicity at 70.5 h was -10.6%.

`CCc1ccc(CN2CCN(C)C3(CCC(=O)N(CC4CC4)CC3)C2)o1` (stereo unspecified): the cytotoxicity at 70.5 h was -1.68%.

Consider `CCCc1nc(C)c(CNc2nc(C)nc3onc(C)c23)s1`, for which the cytotoxicity at 70.5 h was 2.81%.

`CC(C)OCc1ccccc1CNC(=O)C(C)(C)C`: the cytotoxicity at 70.5 h came out at 0.195%.

For `Cc1cccnc1NC(=O)C1CCN(C(C)C(=O)NC(C)(C)C)CC1` (stereo unspecified), the cytotoxicity at 70.5 h is -10.6%.

Consider `Cc1noc(C)c1CNC(=O)c1ccc(NC2CC2)nc1`, for which the cytotoxicity at 70.5 h came to 5.69%.

For the molecule `COc1ccc2c(c1)OCC(Cc1ccc(N)cn1)C2` (stereo unspecified), the cytotoxicity at 70.5 h came to 2.07%.

Take `COc1ncccc1CNc1cc(N2CCCC2CO)ncn1` (stereo unspecified): the cytotoxicity at 70.5 h is -12%.

For the molecule `CC(=O)NCC1CCC2(CCN(c3ncc(C(C)=O)c(C)n3)CC2)O1` (stereo unspecified), the cytotoxicity at 70.5 h is -2.5%.

As to `CN(C)Cc1cn2c(n1)CN(C(=O)Cc1ccsc1)CC2`, the cytotoxicity at 70.5 h is -0.503%.

With `CCc1nnc2n1CCN(C(C(=O)N(CC)CC)c1ccccc1)C2` (stereo unspecified), the cytotoxicity at 70.5 h was -12.7%.

As to `CCN(CCn1cccn1)Cc1nc(-c2cccs2)oc1C`, the cytotoxicity at 70.5 h is -9.82%.

Turning to `CCn1c(SCC(=O)O)nnc1C(C)NC(=O)c1ccc(Cl)cc1` (stereo unspecified), the cytotoxicity at 70.5 h is -8.19%.

Turning to `Cc1nc2c(c(N3CCCOCC3)n1)CCN(C(=O)N1CCCC1)CC2`, the cytotoxicity at 70.5 h was -4.22%.

`O=C(Cn1cc(-c2ccccc2)ncc1=O)Nc1nccs1`: the cytotoxicity at 70.5 h was found to be 7.52%.

Regarding `COCC(=O)N[C@H]1C[C@@H](Cc2cc(CN3CCOCC3)on2)C1(C)C`, the cytotoxicity at 70.5 h was determined as 11.2%.

As for `COCCN(Cc1ccccc1C)c1nc(C)nc2oc(C)nc12`, the cytotoxicity at 70.5 h came to 0.842%.

As for `CC1CCN(CC2CCCN(C(=O)Nc3ccccn3)C2)CC1` (stereo unspecified), the cytotoxicity at 70.5 h is -7.54%.

In the case of `Cc1nc(C)n(CC2CN(CCOc3ccc(C#N)cc3)CCO2)n1` (stereo unspecified), the cytotoxicity at 70.5 h is -13.3%.

For the molecule `Cn1cc(N2C(=O)CC[C@@H]3[C@H]2CCN3Cc2ccncc2)cn1`, the cytotoxicity at 70.5 h came out at 6.03%.

On to `OC(COCc1ccccc1Cl)CN1CC(n2cccn2)C1` (stereo unspecified), for which the cytotoxicity at 70.5 h is 4.22%.

As to `COCCC(=O)N1CCC2(CC1)CC(c1ccccc1)CN(C1CC1)C2` (stereo unspecified), the cytotoxicity at 70.5 h turned out to be 0.742%.

For `CNC(=O)N1CCc2cc(C(=O)NCC3CC3)c(NC(C)C)nc2CC1`, the cytotoxicity at 70.5 h is -7.34%.

For the molecule `O=C(Cc1ccon1)Nc1cncc(Br)c1O`, the cytotoxicity at 70.5 h was -0.318%.

Consider `CCCn1cnnc1CNC(=O)C1COc2ccc(OC)cc2C1` (stereo unspecified), for which the cytotoxicity at 70.5 h amounted to 20.1%.

On to `CNC(=O)C1CC(=O)N(c2cccc(F)c2)C1` (stereo unspecified), for which the cytotoxicity at 70.5 h is -3.04%.

In the case of `COCCn1cc2c(n1)C(CNCc1cccc(OC)c1)OCC2` (stereo unspecified), the cytotoxicity at 70.5 h came out at 20.4%.

As for `CN1CC(c2ccccc2)CC12CCN(C(=O)c1cccnc1)CC2` (stereo unspecified), the cytotoxicity at 70.5 h is -9.06%.

Consider `CC(C)(C)OCCN1CCCC1c1nc(Cc2ccc(F)cc2)no1` (stereo unspecified), for which the cytotoxicity at 70.5 h amounted to 11.6%.

Turning to `CCc1nc(CNc2nc3c(s2)c(C)nn3C)cs1`, the cytotoxicity at 70.5 h is -3.7%.

For the molecule `Cc1cnc2n(c1=O)C(CC(=O)NCc1ccc(F)cc1)CS2` (stereo unspecified), the cytotoxicity at 70.5 h was -6.08%.

For `c1cc(CN2CCc3c(nnn3CC3CC3)C2COCC2CC2)co1` (stereo unspecified), the cytotoxicity at 70.5 h was -14%.

For the molecule `Cc1noc(CN(C)C(=O)CCn2cnc3ccccc32)n1`, the cytotoxicity at 70.5 h was -13.9%.

In the case of `O=C(C1CCOCC1)N1CCC2(CCC(C(=O)N3CCCC3)O2)CC1` (stereo unspecified), the cytotoxicity at 70.5 h is -6.14%.

On to `Cc1ccccc1-c1cncc(C2CCN(C(=O)CN(C)C)CC2)n1`, for which the cytotoxicity at 70.5 h was 23.3%.

`CC(=O)N(C)Cc1ccccc1NC(=O)c1ccccc1C`: the cytotoxicity at 70.5 h is -2.28%.

For `CC(C)C[C@H](Nc1nc(C2CCCC2)nc2c1cnn2C)C(N)=O`, the cytotoxicity at 70.5 h is -6.77%.

For the molecule `Cn1cc(N2CCCC(Oc3ccc(F)cc3Cl)C2=O)cn1` (stereo unspecified), the cytotoxicity at 70.5 h is -4.99%.

As for `Cc1nc(C2CCCN(C(=O)c3cnc(C)s3)C2)no1` (stereo unspecified), the cytotoxicity at 70.5 h came to 10.2%.

As for `COCCn1/c(=N/C(=O)C(C)C)sc2cc(Cl)ccc21`, the cytotoxicity at 70.5 h is 21.1%.

Take `Cc1ncsc1C(=O)NCCNc1ncccc1C#N`: the cytotoxicity at 70.5 h is -8.88%.

`Cn1ncc2c(N3CCN(CCO)CC3)nc(C3CCCC3)nc21`: the cytotoxicity at 70.5 h is -14.2%.

As to `CCOc1ncccc1C(=O)NC1CC(=O)N(CC(F)(F)F)C1` (stereo unspecified), the cytotoxicity at 70.5 h is -6.92%.

Turning to `CCCOCC(=O)N1CCc2c(cccc2S(=O)(=O)N2CCOCC2)C1`, the cytotoxicity at 70.5 h came out at 19.4%.

Take `Cc1nc(CN2CCC23CCN(Cc2ccco2)CC3)cs1`: the cytotoxicity at 70.5 h was -5.68%.

Turning to `C[C@@H]1CN(C(=O)C2(Cn3cccn3)CC2)CC[C@@]1(O)C1CC1`, the cytotoxicity at 70.5 h stood at 26.3%.

Regarding `COCc1cccc(NCc2cccnc2)c1`, the cytotoxicity at 70.5 h is -10.4%.

For `O=C(c1ccco1)N1CCO[C@@H]2CN(c3ncc(F)cn3)CC[C@@H]2C1`, the cytotoxicity at 70.5 h was -5.01%.

Consider `CCOC(C)c1nc(CN2CCN(c3nccc(C)n3)CC2)cs1` (stereo unspecified), for which the cytotoxicity at 70.5 h was -8.29%.

In the case of `Cc1ccccc1C(C(=O)N(C)Cc1cnn(C)c1)N(C)C` (stereo unspecified), the cytotoxicity at 70.5 h was -1.08%.

For the molecule `CCc1nc(N2CCCC(CCCOC)C2)c2cnn(C)c2n1` (stereo unspecified), the cytotoxicity at 70.5 h was -5.41%.

Consider `Cn1ccnc1CN1CCN(CC(=O)NCc2cccs2)CC1`, for which the cytotoxicity at 70.5 h came to 13.9%.

In the case of `Cc1ccc(NC(=O)CN[C@H](C(N)=O)C(C)C)cc1F`, the cytotoxicity at 70.5 h turned out to be 13.9%.

Regarding `O=C(O)c1csc(S(=O)(=O)Nc2cccc(OCC(F)(F)F)c2)c1`, the cytotoxicity at 70.5 h was -3.57%.

As for `CNC(=O)c1ccc(C(=O)N2CCCC(n3ccnc3C)C2)cn1` (stereo unspecified), the cytotoxicity at 70.5 h is -3.51%.

Consider `Cc1cc(C)c2c(N3CCC(C(=O)N4CCCC4)CC3)ncnc2n1`, for which the cytotoxicity at 70.5 h is -7.41%.

On to `COc1cc(N2CC[C@H](O)[C@@H]2Cc2cccnc2)ncn1`, for which the cytotoxicity at 70.5 h was -10.8%.

`COc1cccc(CN(C)Cc2nc3c(cnn3C)c(=O)[nH]2)c1OC`: the cytotoxicity at 70.5 h is -5.01%.

Take `CNC(=O)CN1CCOCC12CCN(C(=O)c1ccc(C)cc1)CC2`: the cytotoxicity at 70.5 h is -6.86%.

With `CCc1nnnn1Cc1csc(N(C)C(C)=O)n1`, the cytotoxicity at 70.5 h is 11.5%.

On to `CSC(C)C(=O)N(C)CC(=O)Nc1ccc(Br)cn1` (stereo unspecified), for which the cytotoxicity at 70.5 h is -3.72%.

Consider `O=C(NC1(C(=O)O)CCCC1)C1Cc2cc(F)ccc2O1` (stereo unspecified), for which the cytotoxicity at 70.5 h was 0.608%.

Consider `Cn1cc(NC(=O)CCc2ccsc2)ccc1=O`, for which the cytotoxicity at 70.5 h is -5.97%.

Take `Cn1cc(NC(=O)N2CCC(OCc3ccccc3)CC2)ccc1=O`: the cytotoxicity at 70.5 h is -9.18%.

On to `Cc1nc[nH]c1-c1nccn1CCN1CCOC1=O`, for which the cytotoxicity at 70.5 h is -8.03%.

Take `c1cc(CCN2CCC(c3n[nH]c(C4CC4)n3)CC2)ccn1`: the cytotoxicity at 70.5 h was found to be 11.7%.

In the case of `CNC(=O)c1cccc(CN2CCC(N(C)Cc3nnc(C)o3)C2)c1` (stereo unspecified), the cytotoxicity at 70.5 h was -6.28%.

On to `CCN1CCOCC12CCN(c1nccs1)CC2`, for which the cytotoxicity at 70.5 h was -13.5%.

On to `COC(=O)C1CN(Cc2ccc(-c3ccncc3)cc2F)C[C@@H](C)O1` (stereo partly specified), for which the cytotoxicity at 70.5 h was 11.8%.

On to `FC(F)(F)c1ccnc(N2C[C@H]3CCN(c4cccnc4)C[C@H]3C2)n1`, for which the cytotoxicity at 70.5 h is -17.5%.

As to `CC(C)(C)c1ncc(C(=O)NCCS(N)(=O)=O)s1`, the cytotoxicity at 70.5 h was -1.37%.

Regarding `Cc1ncc(CNC(=O)CCc2cccc(F)c2)c(C2CCCN2C)n1` (stereo unspecified), the cytotoxicity at 70.5 h is -2.51%.

For `C(=C\c1ccccc1)/CNCC1CCc2nncn2C1` (stereo unspecified), the cytotoxicity at 70.5 h was determined as 5.32%.

As for `NC(=O)Nc1cccc(CNC(=O)CCCc2ccccc2)c1`, the cytotoxicity at 70.5 h amounted to 18%.

For `COc1cccc2c1OCC(C(=O)NCCc1nc3c(s1)CCC3)C2` (stereo unspecified), the cytotoxicity at 70.5 h is -5.62%.

`c1cc(CNCc2cccc3c2OCCO3)cc(Cn2cncn2)c1`: the cytotoxicity at 70.5 h is -10.5%.

Regarding `Cc1cc2nc(C(C)C)cc(N3CCN(S(N)(=O)=O)CC3)n2n1`, the cytotoxicity at 70.5 h is -3.4%.

For `Cc1csc2c(N3CCC(NCCc4ccnn4C)CC3)ncnc12`, the cytotoxicity at 70.5 h amounted to 6.94%.

Consider `Fc1ccc2c(c1)C1(CCNCC1)CC2NC1CC1` (stereo unspecified), for which the cytotoxicity at 70.5 h was determined as 14.1%.

In the case of `CCn1cnnc1CNC(=O)N1CCOC(c2ccc(F)cc2)C1` (stereo unspecified), the cytotoxicity at 70.5 h is -3.32%.

With `CN(C)c1nc2c(c(=O)[nH]1)Cc1ccccc1OC2`, the cytotoxicity at 70.5 h was determined as 31.5%.

As for `O=C(CO)N1CCN(C(=O)c2coc3ccccc23)CC1`, the cytotoxicity at 70.5 h is -7.53%.

On to `CC(=O)c1ccc(S(=O)(=O)NCc2cccnc2N(C)C)cc1`, for which the cytotoxicity at 70.5 h is -3.14%.

As for `Cc1ccc(C(=O)N2CCN(CCCSCC#N)CC2)cc1F`, the cytotoxicity at 70.5 h was -7.64%.

For the molecule `Cc1ccc(C(=O)N2CCN(C(=O)Cc3ccccn3)CC2)c(C)c1`, the cytotoxicity at 70.5 h was -5.32%.

Take `CN1CC(=O)N(c2cccc(F)c2)CC12CCN(S(C)(=O)=O)C2` (stereo unspecified): the cytotoxicity at 70.5 h was -10.7%.

In the case of `NS(=O)(=O)N1CCc2ccc(NC(=O)CC(F)(F)F)cc21`, the cytotoxicity at 70.5 h is -1.59%.

As to `CCN(C)c1ncnc2c1CCN(Cc1csc(C)n1)CC2`, the cytotoxicity at 70.5 h was -12.4%.

Consider `CCc1cnc(N)nc1NCc1ccc(OC)c(OC)c1`, for which the cytotoxicity at 70.5 h is -1.08%.

Regarding `Cc1nnc(NC(=O)CN2CCCC2c2c(C)nn(C)c2C)s1` (stereo unspecified), the cytotoxicity at 70.5 h is 7.87%.

`CN1C(=O)CC(c2cnn(C)c2)C12CCN(C(=O)c1ccncc1)CC2` (stereo unspecified): the cytotoxicity at 70.5 h is -6.57%.

In the case of `COc1cc(C)c(S(=O)(=O)CC(=O)N(C)C2CC2)cc1OC`, the cytotoxicity at 70.5 h worked out at 15.2%.

For `Cc1noc(C)c1CN1CCn2cc(CN3CCOCC3)nc2C1`, the cytotoxicity at 70.5 h was -0.251%.

Consider `Nc1nnnn1NCc1ccccc1C(F)(F)F`, for which the cytotoxicity at 70.5 h is -8.4%.

As to `Cc1ccc(C2CCCN2Cc2nc(-c3ccco3)no2)cc1` (stereo unspecified), the cytotoxicity at 70.5 h is -1.81%.

With `CC(C(=O)N1CCC(Nc2cccnn2)CC1)n1cccn1` (stereo unspecified), the cytotoxicity at 70.5 h is 20.4%.
